Measured values as given in paper PMC5431883, “Enhancing Specific Disruption of Intracellular Protein Complexes by Hydrocarbon Stapled Peptides Using Lipid Based Delivery” (Scientific Reports, 2017).
Positions of bridges follow the written chain, without caps; N, C: chain ends. Non-standard residues stand in square brackets, D forms with d. Residues, ends and D or L forms follow the SMILES beside them. *: point of attachment. Biotin = O=C1N[C@H]2[C@H](CS[C@H]2CCCCC(=O)*)N1; R8 = C=CCCCCCC[C@@](C)(N)C(=O)O; Cba = N[C@@H](CC1CCC1)C(=O)O; S5 = C=CCCC[C@](C)(N)C(=O)O; Ahx = NCCCCCC(=O)O

Each molecule was assayed against T1, Mdm2 (1-125) (Homo sapiens, UniProt Q00987) (assay: Mdm2 competitive fluorescence anisotropy assay (FAM-labeled 12/1 peptide displacement)). Settings: read-out: Kd (apparent dissociation constant, competitive fluorescence anisotropy).
T1 construct: Purified MDM2 (1-125) protein was titrated against 50 nM carboxyfluorescein (FAM)-labeled; GST (N, cleaved yes); made in house; host or cells: E. coli BL21 DE3 (pGEX-6P-1)
T1 sequence (Q00987 1-125): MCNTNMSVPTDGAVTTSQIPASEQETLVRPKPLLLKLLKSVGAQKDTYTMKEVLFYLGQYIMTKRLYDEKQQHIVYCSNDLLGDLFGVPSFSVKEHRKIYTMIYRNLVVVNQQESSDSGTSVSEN
Type: binding
Description: analyzed with SDS page gel and concentrated using a Centricon (3.5 kDa MWCO) concentrator, Millipore. Mdm2 protein samples were then dialyzed into a buffer solution containing 20mM Bis-Tris, pH 6.5, 0.05M NaCl with 1mM DTT and loaded onto a monoS column pre-equilibrated in buffer A (20mM Bis-Tris, pH 6.5, 1mM DTT). The column was then washed in 6 column volumes of buffer A and bound protein was eluted with a linear gradient of 1M NaCL over 25 column volumes. Protein fractions were analyzed with SDS page gel and concentrated using a Centricon (3.5 kDa MWCO) concentrator, Millipore.
Protein concentration was determined using A280 using an extinction coefficients […]
Mdm2 Competitive Fluorescence Anisotropy Assay and Kd Determination […]
Dissociation constants for titration of MDM2 against […]
equation shown below:25,26
[P] is the protein concentration (MDM2), [L] is the labeled peptide concentration, r is the anisotropy measured, r0 is the anisotropy of the free peptide, rb is the anisotropy of the MDM2– FAM-labeled peptide complex, Kd is the dissociation constant, [L]t is the total FAM labeled
(1 picture or pasted object on this page, not shown here) […]
peptide concentration, and [P]t is the total MDM2 concentration. […]
respective competing ligands in subsequent competition assays.
Apparent Kd values were determined for a variety of molecules via competitive fluorescence anisotropy experiments. Titrations were carried out with the concentration of MDM2 held constant […]
The competing molecules were then titrated against the complex of the FAM-labeled peptide and protein. Apparent Kd values were determined by fitting the experimental data to the equations shown below:26,27 […]
[L]st and [L]t denote labeled ligand and total unlabeled ligand input concentrations, respectively.
Kd2 is the dissociation constant of the interaction between the unlabeled ligand and the protein. In […]
all competitive types of experiments, it is assumed that [P]t > [L]st, otherwise considerable amounts of free labeled ligand would always be present and would interfere with measurements. Kd1 is the […]
experimentally determined as described in the previous paragraph. The FAM-labeled peptide was dissolved in dimethyl sulfoxide (DMSO) at 1 mM and diluted into experimental buffer. Readings were carried out with an Envision Multilabel Reader (PerkinElmer). Experiments were carried out […]
Tween 20 buffer. All titrations were carried out in triplicate. Curve-fitting was carried out using […]
Negative control titrations of the ligands under investigation were also carried out with the fluorescently labeled peptide (in the absence of MDM2) to ensure no interactions were occurring between the ligands and FAM-labeled peptide. […]
which would otherwise indicate an unintended interaction between the ligand and the FAM-labeled peptide to be displaced from the MDM2 binding site. […]
Note: 250 nM MDM2.

Row | SMILES | Kd [nM]
1 | CC(=O)N[C@H](C(=O)N[C@@H](CO)C(=O)N[C@@H](Cc1ccccc1)C(=O)N[C@]1(C)CCCCCCC=CCCC[C@@](C)(C(=O)N[C@@H](CCC(=O)O)C(=O)N[C@@H](CC(N)=O)C(=O)N[C@@H](Cc2ccccc2)C(N)=O)NC(=O)[C@H](CC(C)C)NC(=O)[C@H](CC(C)C)NC(=O)[C@H](C)NC(=O)[C@H](Cc2c[nH]c3ccccc23)NC(=O)[C@H](Cc2ccc(O)cc2)NC(=O)[C@H](CCC(=O)O)NC1=O)[C@@H](C)O [VIP-65] | 19.7 ± 1.3
2 | CC(=O)N[C@H](C(=O)N[C@@H](CO)C(=O)N[C@@H](Cc1ccccc1)C(=O)N[C@]1(C)CCCCCCC=CCCC[C@@](C)(C(=O)N[C@@H](CCC(=O)O)C(=O)N[C@@H](CC(N)=O)C(=O)N[C@@H](Cc2ccc(O)cc2)C(N)=O)NC(=O)[C@H](CC(C)C)NC(=O)[C@H](CC(C)C)NC(=O)[C@H](C)NC(=O)[C@H](Cc2c[nH]c3ccccc23)NC(=O)[C@H](Cc2ccc(O)cc2)NC(=O)[C@H](CCC(=O)O)NC1=O)[C@@H](C)O [VIP-66] | 23.1 ± 1.5
3 | CC(C)C[C@@H]1NC(=O)[C@H](C)NC(=O)[C@H](Cc2c[nH]c3ccccc23)NC(=O)[C@H](Cc2ccc(O)cc2)NC(=O)[C@H](CCC(=O)O)NC(=O)[C@](C)(NC(=O)[C@H](Cc2ccccc2)NC(=O)[C@H](CO)NC(=O)[C@@H](NC(=O)CCCCCNC(=O)CCCC[C@@H]2SC[C@@H]3NC(=O)N[C@@H]32)[C@@H](C)O)CCCCCCC=CCCC[C@@](C)(C(N)=O)NC(=O)[C@H](CC(C)C)NC1=O [VIP-67] | 100 ± 7.7
4 | CC(C)C[C@@H]1NC(=O)[C@H](C)NC(=O)[C@H](Cc2c[nH]c3ccccc23)NC(=O)[C@H](Cc2ccc(O)cc2)NC(=O)[C@H](CCC(=O)O)NC(=O)[C@](C)(NC(=O)[C@H](Cc2ccccc2)NC(=O)[C@H](CO)NC(=O)[C@@H](NC(=O)CCCCCNC(=O)CCCC[C@@H]2SC[C@@H]3NC(=O)N[C@@H]32)[C@@H](C)O)CCCCCCC=CCCC[C@@](C)(C(N)=O)NC(=O)[C@H](CC2CCC2)NC1=O [VIP-68] ({Biotin-Ahx}-TSF[R8]EYWAL[Cba][S5]-NH2; staple 4-11) | 41.6 ± 1.7
5 | CC(=O)N[C@H](C(=O)N[C@@H](CO)C(=O)N[C@@H](Cc1ccccc1)C(=O)N[C@]1(C)CCCCCCC=CCCC[C@@](C)(C(=O)N[C@@H](CCC(=O)O)C(N)=O)NC(=O)[C@H](CC2CCC2)NC(=O)[C@H](CC(C)C)NC(=O)[C@H](C)NC(=O)[C@H](Cc2c[nH]c3ccccc23)NC(=O)[C@H](Cc2ccc(O)cc2)NC(=O)[C@H](CCC(=O)O)NC1=O)[C@@H](C)O [VIP-71] (Ac-TSF[R8]EYWAL[Cba][S5]E-NH2; staple 4-11) | 14 ± 1.1
6 | CC(=O)N[C@H](C(=O)N[C@@H](CO)C(=O)N[C@@H](Cc1ccccc1)C(=O)NC(C)(C)C(=O)N[C@@H](CCC(=O)O)C(=O)N[C@@H](Cc1ccc(O)cc1)C(=O)N[C@@H](Cc1c[nH]c2ccccc12)C(=O)N[C@@H](C)C(=O)N[C@@H](CC(C)C)C(=O)N[C@@H](CC(C)C)C(=O)NC(C)(C)C(=O)N[C@@H](CCC(=O)O)C(N)=O)[C@@H](C)O [VIP-76] | 35.9 ± 2.3
7 | CC(=O)N[C@@H](CCCCN)C(=O)N[C@@H](CCCCN)C(=O)NCCCCCC(=O)N[C@H](C(=O)N[C@@H](CO)C(=O)N[C@@H](Cc1ccccc1)C(=O)N[C@]1(C)CCCCCCC=CCCC[C@@](C)(C(N)=O)NC(=O)[C@H](CC(C)C)NC(=O)[C@H](CC(C)C)NC(=O)[C@H](C)NC(=O)[C@H](Cc2c[nH]c3ccccc23)NC(=O)[C@H](Cc2ccc(O)cc2)NC(=O)[C@H](CCC(=O)O)NC1=O)[C@@H](C)O [VIP-77] | 46.8 ± 3.9
8 | CC(=O)N[C@@H](CCCNC(=N)N)C(=O)N[C@@H](CCCNC(=N)N)C(=O)N[C@@H](CCCNC(=N)N)C(=O)NCCCCCC(=O)N[C@H](C(=O)N[C@@H](CO)C(=O)N[C@@H](Cc1ccccc1)C(=O)N[C@]1(C)CCCCCCC=CCCC[C@@](C)(C(N)=O)NC(=O)[C@H](CC(C)C)NC(=O)[C@H](CC(C)C)NC(=O)[C@H](C)NC(=O)[C@H](Cc2c[nH]c3ccccc23)NC(=O)[C@H](Cc2ccc(O)cc2)NC(=O)[C@H](CCC(=O)O)NC1=O)[C@@H](C)O [VIP-78] | 78.8 ± 8.2
9 | CC(=O)N[C@@H](Cc1c[nH]cn1)C(=O)N[C@@H](Cc1c[nH]cn1)C(=O)N[C@@H](Cc1c[nH]cn1)C(=O)NCCCCCC(=O)N[C@H](C(=O)N[C@@H](CO)C(=O)N[C@@H](Cc1ccccc1)C(=O)N[C@]1(C)CCCCCCC=CCCC[C@@](C)(C(N)=O)NC(=O)[C@H](CC(C)C)NC(=O)[C@H](CC(C)C)NC(=O)[C@H](C)NC(=O)[C@H](Cc2c[nH]c3ccccc23)NC(=O)[C@H](Cc2ccc(O)cc2)NC(=O)[C@H](CCC(=O)O)NC1=O)[C@@H](C)O [VIP-79] | 130 ± 11.7
10 | CC(=O)N[C@@H](CCCNC(=N)N)C(=O)N[C@@H](CCCNC(=N)N)C(=O)N[C@@H](CCCNC(=N)N)C(=O)NCCCCCC(=O)N[C@H](C(=O)N[C@@H](CO)C(=O)N[C@@H](Cc1ccccc1)C(=O)N[C@]1(C)CCCCCCC=CCCC[C@@](C)(C(=O)N[C@@H](CCC(=O)O)C(=O)N[C@@H](CC(N)=O)C(=O)N[C@@H](Cc2ccccc2)C(N)=O)NC(=O)[C@H](CC(C)C)NC(=O)[C@H](CC(C)C)NC(=O)[C@H](C)NC(=O)[C@H](Cc2c[nH]c3ccccc23)NC(=O)[C@H](Cc2ccc(O)cc2)NC(=O)[C@H](CCC(=O)O)NC1=O)[C@@H](C)O [VIP-80] (Ac-RRR[Ahx]TSF[R8]EYWALL[S5]ENF-NH2; staple 8-15) | 45 ± 4.1
11 | CC(=O)N[C@@H](Cc1c[nH]cn1)C(=O)N[C@@H](Cc1c[nH]cn1)C(=O)N[C@@H](Cc1c[nH]cn1)C(=O)NCCCCCC(=O)N[C@H](C(=O)N[C@@H](CO)C(=O)N[C@@H](Cc1ccccc1)C(=O)N[C@]1(C)CCCCCCC=CCCC[C@@](C)(C(=O)N[C@@H](CCC(=O)O)C(=O)N[C@@H](CC(N)=O)C(=O)N[C@@H](Cc2ccccc2)C(N)=O)NC(=O)[C@H](CC(C)C)NC(=O)[C@H](CC(C)C)NC(=O)[C@H](C)NC(=O)[C@H](Cc2c[nH]c3ccccc23)NC(=O)[C@H](Cc2ccc(O)cc2)NC(=O)[C@H](CCC(=O)O)NC1=O)[C@@H](C)O [VIP-81] (Ac-HHH[Ahx]TSF[R8]EYWALL[S5]ENF-NH2; staple 8-15) | 61.2 ± 6.5
12 | CC(C)C[C@@H]1NC(=O)[C@H](C)NC(=O)[C@H](Cc2c[nH]c3ccccc23)NC(=O)[C@H](Cc2ccc(O)cc2)NC(=O)[C@H](CCC(=O)O)NC(=O)[C@](C)(NC(=O)[C@H](Cc2ccccc2)NC(=O)[C@H](CO)NC(=O)[C@@H](NC(=O)CCCCCNC(=O)CCCC[C@@H]2SC[C@@H]3NC(=O)N[C@@H]32)[C@@H](C)O)CCCCCCC=CCCC[C@@](C)(C(=O)N[C@@H](CCC(=O)O)C(=O)N[C@@H](CC(N)=O)C(=O)N[C@@H](Cc2ccccc2)C(N)=O)NC(=O)[C@H](CC(C)C)NC1=O [VIP-83] | 24.6 ± 2.2
13 | CC(=O)N[C@@H](CCCNC(=N)N)C(=O)N[C@@H](CCCNC(=N)N)C(=O)N[C@@H](CCCNC(=N)N)C(=O)NCCCCCC(=O)N[C@H](C(=O)N[C@@H](CO)C(=O)N[C@@H](Cc1ccccc1)C(=O)N[C@]1(C)CCCCCCC=CCCC[C@@](C)(C(=O)N[C@@H](CCC(=O)O)C(=O)N[C@@H](CC(N)=O)C(=O)N[C@@H](Cc2ccc(O)cc2)C(N)=O)NC(=O)[C@H](CC(C)C)NC(=O)[C@H](CC(C)C)NC(=O)[C@H](C)NC(=O)[C@H](Cc2c[nH]c3ccccc23)NC(=O)[C@H](Cc2ccc(O)cc2)NC(=O)[C@H](CCC(=O)O)NC1=O)[C@@H](C)O [VIP-85] (Ac-RRR[Ahx]TSF[R8]EYWALL[S5]ENY-NH2; staple 8-15) | 44.9 ± 3.5
14 | CC(=O)N[C@@H](CCCCN)C(=O)N[C@@H](CCCCN)C(=O)NCCCCCC(=O)N[C@H](C(=O)N[C@@H](CO)C(=O)N[C@@H](Cc1ccccc1)C(=O)N[C@]1(C)CCCCCCC=CCCC[C@@](C)(C(=O)N[C@@H](CCC(=O)O)C(=O)N[C@@H](CC(N)=O)C(=O)N[C@@H](Cc2ccc(O)cc2)C(N)=O)NC(=O)[C@H](CC(C)C)NC(=O)[C@H](CC(C)C)NC(=O)[C@H](C)NC(=O)[C@H](Cc2c[nH]c3ccccc23)NC(=O)[C@H](Cc2ccc(O)cc2)NC(=O)[C@H](CCC(=O)O)NC1=O)[C@@H](C)O [VIP-86] (Ac-KK[Ahx]TSF[R8]EYWALL[S5]ENY-NH2; staple 7-14) | 23.5 ± 1.4
15 | CC(C)C[C@@H]1NC(=O)[C@H](C)NC(=O)[C@H](Cc2c[nH]c3ccccc23)NC(=O)[C@H](Cc2ccc(O)cc2)NC(=O)[C@H](CCC(=O)O)NC(=O)[C@](C)(NC(=O)[C@H](Cc2ccccc2)NC(=O)[C@H](CO)NC(=O)[C@@H](NC(=O)CCCCCNC(=O)CCCC[C@@H]2SC[C@@H]3NC(=O)N[C@@H]32)[C@@H](C)O)CCCCCCC=CCCC[C@@](C)(C(=O)N[C@@H](CCC(=O)O)C(=O)N[C@@H](CC(N)=O)C(=O)N[C@@H](Cc2ccc(O)cc2)C(N)=O)NC(=O)[C@H](CC(C)C)NC1=O [VIP-87] | 46.2 ± 3.3
